Drawing on ChEMBL document CHEMBL5212743, “Selectivity Literature for EUbOPEN Chemogenomics Library wave 3” (2023), this text covers % of control, IC50 and Kd for six compounds.

Assay [1] concerns the target Serine/threonine-protein kinase RIO1 (Homo sapiens) (UniProt Q9BRS2). The assay can be described thus: Selectivity interaction (KinomeScan (DiscoverX)) EUB0000698a RIOK1. The settings on record: at 10 µM.
The target in assay [2] is Phosphatidylinositol 4-phosphate 5-kinase type-1 gamma (Homo sapiens) (UniProt O60331). In words: Selectivity interaction (KinomeScan (DiscoverX)) EUB0000698a PIP5K1C. The settings on record: at 10 µM.
The target in assay [3] is Serine/threonine-protein kinase 16 (Homo sapiens, UniProt O75716). The assay can be described thus: Selectivity interaction (KinomeScan (DiscoverX)) EUB0000702a STK16. The settings on record: at 1 µM.
Chain of Serine/threonine-protein kinase 16 (O75716 whole entry): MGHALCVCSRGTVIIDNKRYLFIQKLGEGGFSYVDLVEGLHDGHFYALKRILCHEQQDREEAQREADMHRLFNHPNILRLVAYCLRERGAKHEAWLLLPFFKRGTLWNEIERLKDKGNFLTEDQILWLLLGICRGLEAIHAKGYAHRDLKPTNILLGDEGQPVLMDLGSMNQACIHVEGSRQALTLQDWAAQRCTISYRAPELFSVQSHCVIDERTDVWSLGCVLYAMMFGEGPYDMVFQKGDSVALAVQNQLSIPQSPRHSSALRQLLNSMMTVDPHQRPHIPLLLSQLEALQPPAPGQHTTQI
Assay [4] has as its target Serine/threonine-protein kinase Chk2 (Homo sapiens, UniProt O96017). In words: Selectivity interaction (KinomeScan (DiscoverX)) EUB0000702a CHEK2. As to conditions: at 1 µM.
For assay [5], the target named is High affinity nerve growth factor receptor (Homo sapiens, UniProt P04629). The assay can be described thus: Selectivity interaction (KinomeScan (DiscoverX)) EUB0000702a NTRK1. As to conditions: at 1 µM.
Chain of High affinity nerve growth factor receptor (P04629 33-796 limits assumed): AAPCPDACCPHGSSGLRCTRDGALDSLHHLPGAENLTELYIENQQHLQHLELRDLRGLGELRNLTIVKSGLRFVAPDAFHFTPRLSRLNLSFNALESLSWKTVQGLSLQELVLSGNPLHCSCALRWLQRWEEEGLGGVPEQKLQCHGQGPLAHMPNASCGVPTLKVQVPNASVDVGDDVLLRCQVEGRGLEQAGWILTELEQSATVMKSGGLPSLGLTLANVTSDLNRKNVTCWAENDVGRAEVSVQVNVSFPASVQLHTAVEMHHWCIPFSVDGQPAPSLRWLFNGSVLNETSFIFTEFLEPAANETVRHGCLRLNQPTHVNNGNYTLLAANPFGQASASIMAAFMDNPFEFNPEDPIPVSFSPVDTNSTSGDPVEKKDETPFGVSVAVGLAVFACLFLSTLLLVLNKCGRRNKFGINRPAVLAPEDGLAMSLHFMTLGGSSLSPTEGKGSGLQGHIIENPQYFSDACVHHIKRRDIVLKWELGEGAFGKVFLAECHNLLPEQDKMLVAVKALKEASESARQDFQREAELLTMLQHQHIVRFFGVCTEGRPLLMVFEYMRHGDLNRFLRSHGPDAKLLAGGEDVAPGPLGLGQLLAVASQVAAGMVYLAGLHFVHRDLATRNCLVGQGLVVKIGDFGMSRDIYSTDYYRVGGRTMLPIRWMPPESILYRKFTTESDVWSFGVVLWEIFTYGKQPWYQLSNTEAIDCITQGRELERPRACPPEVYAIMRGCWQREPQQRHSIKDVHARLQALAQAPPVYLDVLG
Assay [6] deals with BMP-2-inducible protein kinase (Homo sapiens) (UniProt Q9NSY1). The assay can be described thus: Selectivity interaction (KinomeScan (DiscoverX)) EUB0000702a BMP2K. As to conditions: at 1 µM.
Assay [7] has as its target Serine/threonine-protein kinase PLK2 (Homo sapiens) (UniProt Q9NYY3). In words: Selectivity interaction (KinomeScan (DiscoverX)) EUB0000702a PLK2. The settings on record: at 1 µM.
Assay [8] addresses Mast/stem cell growth factor receptor Kit (Homo sapiens, UniProt P10721). The settings on record: at 1 µM.
Assay [9] has as its target Aurora kinase A (Homo sapiens, UniProt O14965).
Assay [10] concerns the target Cyclin-dependent kinase 19 (Homo sapiens) (UniProt Q9BWU1). As to conditions: at 1 µM.
The target of assay [11] is Epithelial discoidin domain-containing receptor 1 (Homo sapiens, UniProt Q08345). The settings on record: at 1 µM.
For assay [12], the target named is Tyrosine-protein kinase HCK (Homo sapiens, UniProt P08631). The settings on record: at 1 µM.
Assay [13] addresses T1, Aurora kinase C (Homo sapiens) (UniProt Q9UQB9).
T1 sequence (whole entry): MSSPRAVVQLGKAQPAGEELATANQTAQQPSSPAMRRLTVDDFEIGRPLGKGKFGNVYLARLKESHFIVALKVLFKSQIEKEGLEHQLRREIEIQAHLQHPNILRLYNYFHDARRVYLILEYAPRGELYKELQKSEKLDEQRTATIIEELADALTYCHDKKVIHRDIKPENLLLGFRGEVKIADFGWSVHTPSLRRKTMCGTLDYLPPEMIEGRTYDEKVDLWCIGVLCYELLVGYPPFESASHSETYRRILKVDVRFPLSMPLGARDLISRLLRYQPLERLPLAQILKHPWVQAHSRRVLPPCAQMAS
The settings on record: at 1 µM.

Assay [14] has as its target Platelet-derived growth factor receptor beta (Homo sapiens, UniProt P09619). As to conditions: at 1 µM.
Assay [15] concerns the target Aurora kinase B (Homo sapiens, UniProt Q96GD4). The settings on record: at 1 µM.
Assay [16] has as its target Proto-oncogene tyrosine-protein kinase Src (Homo sapiens, UniProt P12931). The settings on record: at 1 µM.
In assay [17] the target is Macrophage-stimulating protein receptor (Homo sapiens) (UniProt Q04912). As to conditions: at 1 µM.
For assay [18], the target named is Phosphorylase b kinase regulatory subunit alpha, liver isoform (Homo sapiens) (UniProt P46019). In words: Selectivity interaction (Kinase panel (University of Dundee)) EUB0000169b PHKA2. The settings on record: at 10 µM.
For assay [19], the target named is Tyrosine-protein kinase Lck (Homo sapiens, UniProt P06239). In words: Selectivity interaction (Kinase panel (University of Dundee)) EUB0000169b LCK. As to conditions: at 10 µM.
Chain of Tyrosine-protein kinase Lck (P06239 2-509 limits assumed): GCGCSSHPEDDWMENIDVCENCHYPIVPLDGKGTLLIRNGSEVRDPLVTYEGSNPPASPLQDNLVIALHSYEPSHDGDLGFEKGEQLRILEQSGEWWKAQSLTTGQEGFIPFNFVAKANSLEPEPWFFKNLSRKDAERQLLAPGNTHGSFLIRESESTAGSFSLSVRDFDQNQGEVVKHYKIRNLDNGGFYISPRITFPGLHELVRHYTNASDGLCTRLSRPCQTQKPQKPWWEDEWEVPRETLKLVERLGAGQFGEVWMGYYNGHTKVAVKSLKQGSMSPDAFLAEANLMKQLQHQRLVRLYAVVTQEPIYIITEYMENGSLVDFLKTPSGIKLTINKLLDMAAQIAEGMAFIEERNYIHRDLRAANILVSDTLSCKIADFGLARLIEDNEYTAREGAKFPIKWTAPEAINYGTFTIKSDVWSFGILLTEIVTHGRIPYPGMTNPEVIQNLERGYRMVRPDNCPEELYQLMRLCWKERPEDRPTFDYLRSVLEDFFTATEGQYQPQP
Assay [20] concerns the target Ribosomal protein S6 kinase alpha-4 (Homo sapiens) (UniProt O75676). The assay can be described thus: Selectivity interaction (KinomeScan (DiscoverX)) EUB0000169b RPS6KA4. As to conditions: at 1 µM.
Assay [21] addresses Mitogen-activated protein kinase 1 (Homo sapiens, UniProt P28482). The assay can be described thus: Selectivity interaction (Kinase panel (University of Dundee)) EUB0000169b MAPK1. As to conditions: at 10 µM.
Assay [22] addresses Mitogen-activated protein kinase 8 (Homo sapiens, UniProt P45983). The settings on record: at 10 µM.
Assay [23] addresses T2, Serine/threonine-protein kinase TAO3 (Homo sapiens) (UniProt Q9H2K8).
T2 sequence (whole entry): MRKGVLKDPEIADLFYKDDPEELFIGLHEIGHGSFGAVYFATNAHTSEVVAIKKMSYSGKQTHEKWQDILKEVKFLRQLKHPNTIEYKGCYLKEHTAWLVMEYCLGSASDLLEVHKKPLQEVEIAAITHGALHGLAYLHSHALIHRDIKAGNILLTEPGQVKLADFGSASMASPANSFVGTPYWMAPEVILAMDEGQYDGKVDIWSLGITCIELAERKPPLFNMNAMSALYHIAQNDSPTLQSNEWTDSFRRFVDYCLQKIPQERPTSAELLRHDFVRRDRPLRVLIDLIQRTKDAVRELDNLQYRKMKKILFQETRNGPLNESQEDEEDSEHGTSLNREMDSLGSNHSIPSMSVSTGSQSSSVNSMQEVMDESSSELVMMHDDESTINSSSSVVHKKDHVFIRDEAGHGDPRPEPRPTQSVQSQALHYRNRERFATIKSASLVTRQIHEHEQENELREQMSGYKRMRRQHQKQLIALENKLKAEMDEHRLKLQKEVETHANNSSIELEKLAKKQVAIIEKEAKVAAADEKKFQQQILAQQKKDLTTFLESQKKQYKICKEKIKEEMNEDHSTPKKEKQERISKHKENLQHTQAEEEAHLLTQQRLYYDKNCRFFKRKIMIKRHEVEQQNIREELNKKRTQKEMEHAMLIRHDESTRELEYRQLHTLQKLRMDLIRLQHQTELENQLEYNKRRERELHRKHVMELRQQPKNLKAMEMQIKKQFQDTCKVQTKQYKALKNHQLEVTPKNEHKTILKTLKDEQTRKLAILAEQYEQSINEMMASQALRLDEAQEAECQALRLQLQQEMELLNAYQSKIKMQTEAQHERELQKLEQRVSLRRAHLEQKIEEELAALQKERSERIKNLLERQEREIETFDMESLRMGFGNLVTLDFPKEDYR
The assay can be described thus: Selectivity interaction (KinomeScan (DiscoverX)) EUB0000305b TAOK3. The settings on record: CellTiter-Glo assay (Promega, proliferation in ACHN cells): IC50 = […] nM, https://www.sgc-ffm.uni-frankfurt.de/#!specificprobeove, at 100 nM.

Assay [24] concerns the target Phosphatidylinositol 4,5-bisphosphate 3-kinase catalytic subunit gamma isoform (Homo sapiens, UniProt P48736). In words: Selectivity interaction (KinomeScan (DiscoverX, competition-binding assay)) EUB0000178b PIK3CG.
Assay [25] deals with Tyrosine-protein kinase JAK1 (Homo sapiens, UniProt P23458). The assay can be described thus: Selectivity interaction (KinomeScan (DiscoverX)) EUB0000178b JAK1@kinase 2. The settings on record: at 1 µM.
Chain of Tyrosine-protein kinase JAK1 (P23458 whole entry): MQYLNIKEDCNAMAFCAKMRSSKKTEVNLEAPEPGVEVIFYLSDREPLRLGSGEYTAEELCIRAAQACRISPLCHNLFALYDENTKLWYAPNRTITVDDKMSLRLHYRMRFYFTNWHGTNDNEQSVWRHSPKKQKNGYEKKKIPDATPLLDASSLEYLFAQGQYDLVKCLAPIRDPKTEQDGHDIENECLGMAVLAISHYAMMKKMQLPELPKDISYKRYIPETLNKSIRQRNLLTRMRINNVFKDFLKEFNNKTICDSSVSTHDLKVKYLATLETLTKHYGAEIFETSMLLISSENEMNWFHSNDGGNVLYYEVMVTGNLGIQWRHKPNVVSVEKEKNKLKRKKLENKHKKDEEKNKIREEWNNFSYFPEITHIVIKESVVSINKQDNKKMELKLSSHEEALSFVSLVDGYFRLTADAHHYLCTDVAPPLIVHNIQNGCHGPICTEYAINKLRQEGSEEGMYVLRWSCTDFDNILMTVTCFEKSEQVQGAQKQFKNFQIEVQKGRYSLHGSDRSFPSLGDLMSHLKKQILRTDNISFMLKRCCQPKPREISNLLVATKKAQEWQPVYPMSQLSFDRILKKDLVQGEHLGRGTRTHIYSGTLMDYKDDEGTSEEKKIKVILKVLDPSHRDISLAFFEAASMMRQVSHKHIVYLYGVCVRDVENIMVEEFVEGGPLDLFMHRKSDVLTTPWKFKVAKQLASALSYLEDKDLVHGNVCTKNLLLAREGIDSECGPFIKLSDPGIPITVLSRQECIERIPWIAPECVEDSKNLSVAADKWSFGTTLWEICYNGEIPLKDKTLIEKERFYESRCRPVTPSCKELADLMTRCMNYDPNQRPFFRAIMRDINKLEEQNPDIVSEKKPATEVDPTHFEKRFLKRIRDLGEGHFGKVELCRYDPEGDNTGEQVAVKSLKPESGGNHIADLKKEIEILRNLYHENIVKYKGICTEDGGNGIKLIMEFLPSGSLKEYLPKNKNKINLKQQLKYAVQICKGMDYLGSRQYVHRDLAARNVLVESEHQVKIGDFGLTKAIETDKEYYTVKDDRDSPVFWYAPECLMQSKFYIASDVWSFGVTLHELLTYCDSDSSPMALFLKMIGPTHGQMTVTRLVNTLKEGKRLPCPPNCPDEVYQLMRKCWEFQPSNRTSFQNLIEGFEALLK

Chain of Cyclin-dependent kinase 19 (Homo sapiens) (Q9BWU1 whole entry, the tested form may be a part): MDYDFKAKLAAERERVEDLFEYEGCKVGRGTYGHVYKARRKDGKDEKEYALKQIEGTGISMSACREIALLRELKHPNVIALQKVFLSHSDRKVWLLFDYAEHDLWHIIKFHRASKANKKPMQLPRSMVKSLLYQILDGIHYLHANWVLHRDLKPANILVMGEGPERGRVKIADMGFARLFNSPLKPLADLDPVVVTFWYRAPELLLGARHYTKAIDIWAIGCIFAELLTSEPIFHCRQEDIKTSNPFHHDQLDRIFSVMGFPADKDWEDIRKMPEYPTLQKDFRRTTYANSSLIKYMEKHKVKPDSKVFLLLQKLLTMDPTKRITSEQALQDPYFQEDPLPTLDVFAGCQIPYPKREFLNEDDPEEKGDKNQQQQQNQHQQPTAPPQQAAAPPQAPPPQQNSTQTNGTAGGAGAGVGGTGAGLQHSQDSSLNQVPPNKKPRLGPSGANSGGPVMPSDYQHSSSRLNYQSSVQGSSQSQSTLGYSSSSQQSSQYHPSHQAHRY
Chain of Serine/threonine-protein kinase Chk2 (O96017 whole entry): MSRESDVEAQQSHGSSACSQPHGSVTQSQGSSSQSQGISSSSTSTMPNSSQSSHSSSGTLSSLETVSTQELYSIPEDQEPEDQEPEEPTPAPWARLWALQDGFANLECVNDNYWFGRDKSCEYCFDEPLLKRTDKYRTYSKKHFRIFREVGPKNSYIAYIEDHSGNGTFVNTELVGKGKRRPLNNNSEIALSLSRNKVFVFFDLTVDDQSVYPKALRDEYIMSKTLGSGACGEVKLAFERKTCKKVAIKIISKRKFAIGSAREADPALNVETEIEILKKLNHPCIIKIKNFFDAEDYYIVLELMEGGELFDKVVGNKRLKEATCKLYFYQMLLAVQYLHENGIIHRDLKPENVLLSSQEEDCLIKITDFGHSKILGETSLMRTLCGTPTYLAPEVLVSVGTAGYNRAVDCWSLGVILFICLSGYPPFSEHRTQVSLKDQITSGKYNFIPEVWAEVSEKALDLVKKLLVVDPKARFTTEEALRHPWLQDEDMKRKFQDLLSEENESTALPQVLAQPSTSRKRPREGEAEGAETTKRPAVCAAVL
Chain of Aurora kinase B (Q96GD4 whole entry): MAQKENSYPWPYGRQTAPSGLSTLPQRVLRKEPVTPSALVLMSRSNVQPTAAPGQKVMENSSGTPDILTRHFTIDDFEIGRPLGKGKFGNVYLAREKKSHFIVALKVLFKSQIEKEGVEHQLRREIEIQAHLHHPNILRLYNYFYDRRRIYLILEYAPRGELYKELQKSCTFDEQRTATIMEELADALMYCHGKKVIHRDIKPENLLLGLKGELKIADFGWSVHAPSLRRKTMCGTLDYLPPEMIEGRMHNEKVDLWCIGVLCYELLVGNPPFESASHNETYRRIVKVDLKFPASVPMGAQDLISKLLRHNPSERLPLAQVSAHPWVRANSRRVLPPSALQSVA
Chain of Mitogen-activated protein kinase 1 (P28482 whole entry): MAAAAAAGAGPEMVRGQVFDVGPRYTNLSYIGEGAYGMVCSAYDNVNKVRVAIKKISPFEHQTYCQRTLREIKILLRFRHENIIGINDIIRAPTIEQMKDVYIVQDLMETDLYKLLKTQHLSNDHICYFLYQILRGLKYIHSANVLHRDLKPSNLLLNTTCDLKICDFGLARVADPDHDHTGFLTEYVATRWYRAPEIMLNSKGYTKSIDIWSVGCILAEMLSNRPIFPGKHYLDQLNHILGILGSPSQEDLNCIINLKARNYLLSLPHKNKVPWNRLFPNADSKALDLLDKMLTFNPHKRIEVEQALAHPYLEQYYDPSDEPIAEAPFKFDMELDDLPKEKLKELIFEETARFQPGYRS
Chain of Mitogen-activated protein kinase 8 (P45983 whole entry): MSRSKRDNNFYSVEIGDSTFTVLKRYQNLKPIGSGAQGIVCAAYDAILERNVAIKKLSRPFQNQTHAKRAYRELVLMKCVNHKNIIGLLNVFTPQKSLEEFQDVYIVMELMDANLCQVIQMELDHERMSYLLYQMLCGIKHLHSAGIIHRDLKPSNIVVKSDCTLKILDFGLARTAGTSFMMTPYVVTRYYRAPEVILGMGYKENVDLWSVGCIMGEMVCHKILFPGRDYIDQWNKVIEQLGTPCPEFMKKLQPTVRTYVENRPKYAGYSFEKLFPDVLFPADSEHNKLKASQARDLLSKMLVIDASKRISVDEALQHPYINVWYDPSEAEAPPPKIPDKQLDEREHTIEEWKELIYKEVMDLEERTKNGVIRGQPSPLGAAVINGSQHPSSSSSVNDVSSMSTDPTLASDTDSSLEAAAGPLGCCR

Take `COc1cc2ncn(-c3cc(OCc4ccccc4C(F)(F)F)c(C(N)=O)s3)c2cc1OC` [GW843682X]: the % of control in [1] was 4.1%; in [2], 10%.

On to `CN(c1ccnc(CNc2nc(Nc3ccc4c(c3)CC(=O)N4)ncc2C(F)(F)F)n1)S(C)(=O)=O` [PF-00911705], for which the % of control is 1.5% in assay [3]; 0% in [4]; 10% in [5]; 2.3% in assay [6]; 0.5% in [7].

In general, IC50 refers to the concentration that gives 50% inhibition. As for `CCOc1cn(-c2ccc(F)cc2C)nc1C(=O)Nc1ccc(Oc2ccnc3cc(OC)c(OC)cc23)c(F)c1`, the % of control in assay [8], in assay [10], in assay [11], in [12], in assay [13] and in assay [14] was < 10% in each case. Besides, the % of control in assay [15], in assay [16] and in [17] was < 10% throughout. The same compound showed an IC50 in [9] of 36 nM.

For the compound `CC[C@@H]1C(=O)N(C)c2cnc(Nc3ccc(C(=O)NC4CCN(C)CC4)cc3OC)nc2N1C1CCCC1`, the % of control was 60% in assay [18]; 55% in assay [19]; 0.3% in [20]; 93% in assay [21]; 92% in assay [22].

`C[C@H](c1ccnc(Nc2nc3ccc(-c4cc(N(C)C)ncn4)cc3[nH]2)c1)N1CCN(C(=O)CC(F)(F)F)CC1` [BAY-985]: the % of control in assay [23] turned out to be 41%.

Broadly, the Kd is the equilibrium constant for the complex coming apart. Read a high Kd as a looser complex. The compound `CN1C(=O)c2sccc2N(C)c2nc(Nc3ccc(S(N)(=O)=O)cc3)ncc21` came in with a Kd in assay [24] of 8.4 nM. The compound further gave a % of control in [25] of 4.3%.
